Laboratory results as given in BindingDB's records for patent US12404295 (Idorsia Pharmaceuticals, 2025).

These compounds were tested against Galectin-3 (Homo sapiens, UniProt P17931) (assay: Competitive Binding Assay).
Description: The inhibitory activity of compounds is determined in competitive binding assays. This spectrophotometric assay measures the binding of biotinylated human Gal-3 (hGal-3) or human Gal-1 (hGal-1), respectively, to a microplate-adsorbed glycoprotein, asialofetuin (ASF).Briefly, compounds are serially diluted in DMSO (working dilutions). […] Finally, 25 μL/well of ABTS substrate is added.

Galectin-3, sequence (P17931 whole entry): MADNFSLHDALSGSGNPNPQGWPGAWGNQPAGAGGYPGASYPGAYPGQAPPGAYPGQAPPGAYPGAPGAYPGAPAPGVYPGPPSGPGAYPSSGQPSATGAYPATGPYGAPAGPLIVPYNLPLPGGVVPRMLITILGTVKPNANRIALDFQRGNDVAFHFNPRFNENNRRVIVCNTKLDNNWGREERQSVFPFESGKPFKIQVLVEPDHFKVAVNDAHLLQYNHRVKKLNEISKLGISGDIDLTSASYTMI

| IC50 | SMILES |
| --- | --- |
| 550 nM | Cc1nc(C(S[C@@H]2O[C@H](CO)[C@H](O)[C@H](n3cc(-c4cc(F)c(F)c(F)c4)nn3)[C@H]2O)C(C)(C)O)c(C)s1 (stereo partly specified) [US12404295, Example 2.31.123.] |
| 280 nM | Cc1nc([C@@H](S[C@@H]2O[C@H](CO)[C@H](O)[C@H](n3cc(-c4cc(F)c(F)c(F)c4)nn3)[C@H]2O)C(C)(C)O)c(C)s1 [US12404295, Example 2.31.123R.] |
| 4700 nM | Cc1nc([C@H](S[C@@H]2O[C@H](CO)[C@H](O)[C@H](n3cc(-c4cc(F)c(F)c(F)c4)nn3)[C@H]2O)C(C)(C)O)c(C)s1 [US12404295, Example 2.31.123S.] |
| 320 nM | OC[C@H]1O[C@@H](SC(c2ncccc2C(F)(F)F)C2(O)CC(F)(F)C2)[C@H](O)[C@@H](n2cc(-c3cc(F)c(F)c(F)c3)nn2)[C@H]1O (stereo partly specified) [US12404295, Example 2.35.125.] |
| 100 nM | OC[C@H]1O[C@@H](S[C@H](c2ncccc2C(F)(F)F)C2(O)CC(F)(F)C2)[C@H](O)[C@@H](n2cc(-c3cc(F)c(F)c(F)c3)nn2)[C@H]1O [US12404295, Example 2.35.125R.] |
| 3000 nM | OC[C@H]1O[C@@H](S[C@@H](c2ncccc2C(F)(F)F)C2(O)CC(F)(F)C2)[C@H](O)[C@@H](n2cc(-c3cc(F)c(F)c(F)c3)nn2)[C@H]1O [US12404295, Example 2.35.125S.] |
| 380 nM | CC1(C)CC(O)(C(S[C@@H]2O[C@H](CO)[C@H](O)[C@H](n3cc(-c4cc(F)c(F)c(F)c4)nn3)[C@H]2O)c2ccccc2C(F)(F)F)CC(C)(C)O1 (stereo partly specified) [US12404295, Example 2.42.102.] |
| 90 nM | CC1(C)CC(O)([C@H](S[C@@H]2O[C@H](CO)[C@H](O)[C@H](n3cc(-c4cc(F)c(F)c(F)c4)nn3)[C@H]2O)c2ccccc2C(F)(F)F)CC(C)(C)O1 [US12404295, Example 2.42.102R.] |
| 7820 nM | CC1(C)CC(O)([C@@H](S[C@@H]2O[C@H](CO)[C@H](O)[C@H](n3cc(-c4cc(F)c(F)c(F)c4)nn3)[C@H]2O)c2ccccc2C(F)(F)F)CC(C)(C)O1 [US12404295, Example 2.42.102S.] |
| 120 nM | CC1(C)CC(O)(C(S[C@@H]2O[C@H](CO)[C@H](O)[C@H](n3cc(-c4cc(F)c(F)c(F)c4)nn3)[C@H]2O)c2ccccc2C(F)(F)F)CCO1 (stereo partly specified) [US12404295, Example 2.43.102.] |
| 290 nM | CC1(C)C[C@@](O)([C@H](S[C@@H]2O[C@H](CO)[C@H](O)[C@H](n3cc(-c4cc(F)c(F)c(F)c4)nn3)[C@H]2O)c2ccccc2C(F)(F)F)CCO1 [US12404295, Example 2.43.102RR.] |
| 40 nM | CC1(C)C[C@](O)([C@H](S[C@@H]2O[C@H](CO)[C@H](O)[C@H](n3cc(-c4cc(F)c(F)c(F)c4)nn3)[C@H]2O)c2ccccc2C(F)(F)F)CCO1 [US12404295, Example 2.43.102RS.] |
| 3900 nM | CC1(C)C[C@@](O)([C@@H](S[C@@H]2O[C@H](CO)[C@H](O)[C@H](n3cc(-c4cc(F)c(F)c(F)c4)nn3)[C@H]2O)c2ccccc2C(F)(F)F)CCO1 [US12404295, Example 2.43.102SR.] |
| 3920 nM | CC1(C)C[C@](O)([C@@H](S[C@@H]2O[C@H](CO)[C@H](O)[C@H](n3cc(-c4cc(F)c(F)c(F)c4)nn3)[C@H]2O)c2ccccc2C(F)(F)F)CCO1 [US12404295, Example 2.43.102SS.] |
| 1500 nM | Cc1ccccc1[C@@H](S[C@@H]1O[C@H](CO)[C@H](O)[C@H](n2cc(-c3cc(F)c(F)c(F)c3)nn2)[C@H]1O)[C@@]1(O)CCOC(C)(C)C1 [US12404295, Example 2.43.112RR.] |
| 130 nM | Cc1ccccc1[C@@H](S[C@@H]1O[C@H](CO)[C@H](O)[C@H](n2cc(-c3cc(F)c(F)c(F)c3)nn2)[C@H]1O)[C@]1(O)CCOC(C)(C)C1 [US12404295, Example 2.43.112RS.] |
| 4900 nM | Cc1ccccc1[C@H](S[C@@H]1O[C@H](CO)[C@H](O)[C@H](n2cc(-c3cc(F)c(F)c(F)c3)nn2)[C@H]1O)[C@@]1(O)CCOC(C)(C)C1 [US12404295, Example 2.43.112SR.] |
| 7300 nM | Cc1ccccc1[C@H](S[C@@H]1O[C@H](CO)[C@H](O)[C@H](n2cc(-c3cc(F)c(F)c(F)c3)nn2)[C@H]1O)[C@]1(O)CCOC(C)(C)C1 [US12404295, Example 2.43.112SS.] |
| 160 nM | CO[C@@H]1[C@@H](n2cc(-c3cc(F)c(F)c(F)c3)nn2)[C@@H](O)[C@@H](CO)O[C@H]1SC(c1ncccc1C)C1(O)CCOC(C)(C)C1 (stereo partly specified) [US12404295, Example 2.43.126.I.] |
| 40 nM | CO[C@@H]1[C@@H](n2cc(-c3cc(F)c(F)c(F)c3)nn2)[C@@H](O)[C@@H](CO)O[C@H]1S[C@H](c1ncccc1C)[C@]1(O)CCOC(C)(C)C1 [US12404295, Example 2.43.126RS.I.] |
| 60 nM | OC[C@H]1O[C@@H](S[C@H](c2ccccc2C2CC2)C2(O)CCC(F)(F)CC2)[C@H](O)[C@@H](n2cc(-c3cc(F)c(F)c(F)c3)nn2)[C@H]1O [US12404295, Example 2.44.106R.*] |
| 930 nM | OC[C@H]1O[C@@H](S[C@@H](c2ccccc2C2CC2)C2(O)CCC(F)(F)CC2)[C@H](O)[C@@H](n2cc(-c3cc(F)c(F)c(F)c3)nn2)[C@H]1O [US12404295, Example 2.44.106S.*] |
| 360 nM | OC[C@H]1O[C@@H](SC(c2cccc(Cl)c2Cl)C2(O)CCC(F)(F)CC2)[C@H](O)[C@@H](n2cc(-c3cc(F)c(F)c(F)c3)nn2)[C@H]1O (stereo partly specified) [US12404295, Example 2.44.113.] |
| 800 nM | OC[C@H]1O[C@@H](S[C@H](c2cccc(Cl)c2Cl)C2(O)CCC(F)(F)CC2)[C@H](O)[C@@H](n2cc(-c3cc(F)c(F)c(F)c3)nn2)[C@H]1O [US12404295, Example 2.44.113R.] |
| 57500 nM | OC[C@H]1O[C@@H](S[C@@H](c2cccc(Cl)c2Cl)C2(O)CCC(F)(F)CC2)[C@H](O)[C@@H](n2cc(-c3cc(F)c(F)c(F)c3)nn2)[C@H]1O [US12404295, Example 2.44.113S.] |
| 110 nM | CC(C)Cc1c(C(S[C@@H]2O[C@H](CO)[C@H](O)[C@H](n3cc(-c4cc(F)c(F)c(F)c4)nn3)[C@H]2O)C2(O)CCC(F)(F)CC2)noc1C1CC1 (stereo partly specified) [US12404295, Example 2.44.131.] |
